Results from PubChem BioAssay (NCI).
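How tested: cells in 96-well plates exposed to compound for 48 hours at five concentrations. GI50 is the concentration that inhibits growth by half. TGI: total growth inhibition.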

Tests used:
Assay in all cases: inhibition of tumour cell growth, NCI panel, 48 h
U251 CNS = tested on: U251 CNS
HCC-2998 colon = tested on: HCC-2998 colon
NCI-H522 lung = tested on: NCI-H522 lung
SNB-75 CNS = tested on: SNB-75 CNS
NCI-H226 lung = tested on: NCI-H226 lung
BT-549 breast = tested on: BT-549 breast
RXF 393 renal = tested on: RXF 393 renal
OVCAR-5 ovarian = tested on: OVCAR-5 ovarian
MOLT-4 leukemia = tested on: MOLT-4 leukemia
HCT-15 colon = tested on: HCT-15 colon
MDA-MB-468 breast = tested on: MDA-MB-468 breast
OVCAR-3 ovarian = tested on: OVCAR-3 ovarian
MDA-MB-231 breast = tested on: MDA-MB-231 breast
MDA-MB-435 = tested on: MDA-MB-435
COLO 205 colon = tested on: COLO 205 colon
K-562 leukemia = tested on: K-562 leukemia
PC-3 prostate = tested on: PC-3 prostate
SN12C renal = tested on: SN12C renal
HCT-116 colon = tested on: HCT-116 colon
786-0 renal = tested on: 786-0 renal
KM12 colon = tested on: KM12 colon
SK-MEL-28 melanoma = tested on: SK-MEL-28 melanoma
SW-620 colon = tested on: SW-620 colon
UACC-257 melanoma = tested on: UACC-257 melanoma
M14 melanoma = tested on: M14 melanoma
HT29 colon = tested on: HT29 colon
OVCAR-4 ovarian = tested on: OVCAR-4 ovarian
T-47D breast = tested on: T-47D breast
SF-268 CNS = tested on: SF-268 CNS
RPMI-8226 leukemia = tested on: RPMI-8226 leukemia
SK-MEL-2 melanoma = tested on: SK-MEL-2 melanoma
SF-295 CNS = tested on: SF-295 CNS
A549 NSCLC = tested on: A549 NSCLC
A498 renal = tested on: A498 renal
EKVX NSCLC = tested on: EKVX NSCLC
TK-10 renal = tested on: TK-10 renal
HOP-62 NSCLC = tested on: HOP-62 NSCLC
SF-539 CNS = tested on: SF-539 CNS
DU-145 prostate = tested on: DU-145 prostate
SK-MEL-5 melanoma = tested on: SK-MEL-5 melanoma
ACHN renal = tested on: ACHN renal
NCI-H460 lung = tested on: NCI-H460 lung
SNB-19 CNS = tested on: SNB-19 CNS
SR leukemia = tested on: SR leukemia
OVCAR-8 ovarian = tested on: OVCAR-8 ovarian
CCRF-CEM leukemia = tested on: CCRF-CEM leukemia
CAKI-1 renal = tested on: CAKI-1 renal
HL-60(TB) leukemia = tested on: HL-60(TB) leukemia
UACC-62 melanoma = tested on: UACC-62 melanoma
LOX IMVI melanoma = tested on: LOX IMVI melanoma
NCI-H23 lung = tested on: NCI-H23 lung
NCI/ADR-RES ovarian = tested on: NCI/ADR-RES ovarian
HS 578T breast = tested on: HS 578T breast
MALME-3M melanoma = tested on: MALME-3M melanoma
SK-OV-3 ovarian = tested on: SK-OV-3 ovarian
UO-31 renal = tested on: UO-31 renal
IGROV1 ovarian = tested on: IGROV1 ovarian
HOP-92 NSCLC = tested on: HOP-92 NSCLC
MCF7 breast = tested on: MCF7 breast

SMILES: O=C(N/N=C/c1c[nH]c2ccccc12)Nc1ccccc1Cl
- GI50 (U251 CNS): 288 nM
- TGI (U251 CNS): 11100 nM
- GI50 (HCC-2998 colon): 608 nM
- TGI (HCC-2998 colon): 3490 nM
- GI50 (NCI-H522 lung): 42.2 nM
- TGI (NCI-H522 lung): 328 nM
- GI50 (SNB-75 CNS): 232 nM
- TGI (SNB-75 CNS): 2640 nM
- GI50 (NCI-H226 lung): 1690 nM
- TGI (NCI-H226 lung): 19600 nM
- GI50 (BT-549 breast): 311 nM
- TGI (BT-549 breast): 6310 nM
- GI50 (RXF 393 renal): 292 nM
- TGI (RXF 393 renal): 2100 nM
- GI50 (OVCAR-5 ovarian): 670 nM
- TGI (OVCAR-5 ovarian): 13100 nM
- GI50 (MOLT-4 leukemia): 264 nM
- TGI (MOLT-4 leukemia): 12600 nM
- GI50 (HCT-15 colon): 65.8 nM
- TGI (HCT-15 colon): 12000 nM
- GI50 (MDA-MB-468 breast): 217 nM
- TGI (MDA-MB-468 breast): 584 nM
- GI50 (OVCAR-3 ovarian): 96 nM
- TGI (OVCAR-3 ovarian): 2320 nM
- GI50 (MDA-MB-231 breast): 508 nM
- TGI (MDA-MB-231 breast): 4930 nM
- GI50 (MDA-MB-435): 27 nM
- TGI (MDA-MB-435): 89.1 nM
- GI50 (COLO 205 colon): 292 nM
- TGI (COLO 205 colon): 1070 nM
- GI50 (K-562 leukemia): 39.1 nM
- TGI (K-562 leukemia): > 33800 nM
- GI50 (PC-3 prostate): 428 nM
- TGI (PC-3 prostate): 15400 nM
- GI50 (SN12C renal): 433 nM
- TGI (SN12C renal): 6510 nM
- GI50 (HCT-116 colon): 70.9 nM
- TGI (HCT-116 colon): 3820 nM
- GI50 (786-0 renal): 493 nM
- TGI (786-0 renal): 3740 nM
- GI50 (KM12 colon): 172 nM
- TGI (KM12 colon): 5190 nM
- GI50 (SK-MEL-28 melanoma): 2520 nM
- TGI (SK-MEL-28 melanoma): 19100 nM
- GI50 (SW-620 colon): 117 nM
- TGI (SW-620 colon): 16000 nM
- GI50 (UACC-257 melanoma): 598 nM
- TGI (UACC-257 melanoma): 22500 nM
- GI50 (M14 melanoma): 111 nM
- TGI (M14 melanoma): 11900 nM
- GI50 (HT29 colon): 119 nM
- TGI (HT29 colon): 986 nM
- GI50 (OVCAR-4 ovarian): 2780 nM
- TGI (OVCAR-4 ovarian): 29700 nM
- GI50 (T-47D breast): 386 nM
- TGI (T-47D breast): 26600 nM
- GI50 (SF-268 CNS): 844 nM
- TGI (SF-268 CNS): 15000 nM
- GI50 (RPMI-8226 leukemia): 345 nM
- TGI (RPMI-8226 leukemia): 4760 nM
- GI50 (SK-MEL-2 melanoma): 222 nM
- TGI (SK-MEL-2 melanoma): 11300 nM
- GI50 (SF-295 CNS): 255 nM
- TGI (SF-295 CNS): 2520 nM
- GI50 (A549 NSCLC): 577 nM
- TGI (A549 NSCLC): 13000 nM
- GI50 (A498 renal): 5230 nM
- TGI (A498 renal): 18500 nM
- GI50 (EKVX NSCLC): 500 nM
- TGI (EKVX NSCLC): 13000 nM
- GI50 (TK-10 renal): 2410 nM
- TGI (TK-10 renal): 20600 nM
- GI50 (HOP-62 NSCLC): 427 nM
- TGI (HOP-62 NSCLC): 15600 nM
- GI50 (SF-539 CNS): 205 nM
- TGI (SF-539 CNS): 684 nM
- GI50 (DU-145 prostate): 432 nM
- TGI (DU-145 prostate): 11400 nM
- GI50 (SK-MEL-5 melanoma): 254 nM
- TGI (SK-MEL-5 melanoma): 1370 nM
- GI50 (ACHN renal): 665 nM
- TGI (ACHN renal): 14600 nM
- GI50 (NCI-H460 lung): 336 nM
- TGI (NCI-H460 lung): 6200 nM
- GI50 (SNB-19 CNS): 590 nM
- TGI (SNB-19 CNS): 16800 nM
- GI50 (SR leukemia): 41.1 nM
- TGI (SR leukemia): 12900 nM
- GI50 (OVCAR-8 ovarian): 401 nM
- TGI (OVCAR-8 ovarian): 5760 nM
- GI50 (CCRF-CEM leukemia): 178 nM
- TGI (CCRF-CEM leukemia): 10200 nM
- GI50 (CAKI-1 renal): 257 nM
- TGI (CAKI-1 renal): 13800 nM
- GI50 (HL-60(TB) leukemia): 102 nM
- TGI (HL-60(TB) leukemia): 2630 nM
- GI50 (UACC-62 melanoma): 148 nM
- TGI (UACC-62 melanoma): 4700 nM
- GI50 (LOX IMVI melanoma): 274 nM
- TGI (LOX IMVI melanoma): 10600 nM
- GI50 (NCI-H23 lung): 424 nM
- TGI (NCI-H23 lung): 6890 nM
- GI50 (NCI/ADR-RES ovarian): 57.4 nM
- TGI (NCI/ADR-RES ovarian): 613 nM
- GI50 (HS 578T breast): 285 nM
- TGI (HS 578T breast): 15000 nM
- GI50 (MALME-3M melanoma): 239 nM
- TGI (MALME-3M melanoma): 16000 nM
- GI50 (SK-OV-3 ovarian): 526 nM
- TGI (SK-OV-3 ovarian): 20200 nM
- GI50 (UO-31 renal): 471 nM
- TGI (UO-31 renal): 14900 nM
- GI50 (IGROV1 ovarian): 358 nM
- TGI (IGROV1 ovarian): 12200 nM
- GI50 (HOP-92 NSCLC): 869 nM
- TGI (HOP-92 NSCLC): 8330 nM
- GI50 (MCF7 breast): 230 nM
- TGI (MCF7 breast): 14300 nM
